What was measured:
PDE5 = PDE5 (Homo sapiens, UniProt O76074); assay: Preliminary PDE selectivity evaluation; type: biochemical; settings: 10 µM; data not shown
PDE4D3 [1] = target: T1, PDE4D3 (Homo sapiens, UniProt Q08499); assay: PDE4 enzymatic assay (IMAP fluorescence polarisation); type: biochemical; settings: for inhibition at 10 µM: in duplicate, read-out: inhibition of PDE4D3, preliminary test; for IC50: human recombinant enzyme
T1 construct: host or cells: Spodoptera frugiperda (Sf9), baculovirus
T1 sequence (Q08499 1-673 isoform Q08499-2): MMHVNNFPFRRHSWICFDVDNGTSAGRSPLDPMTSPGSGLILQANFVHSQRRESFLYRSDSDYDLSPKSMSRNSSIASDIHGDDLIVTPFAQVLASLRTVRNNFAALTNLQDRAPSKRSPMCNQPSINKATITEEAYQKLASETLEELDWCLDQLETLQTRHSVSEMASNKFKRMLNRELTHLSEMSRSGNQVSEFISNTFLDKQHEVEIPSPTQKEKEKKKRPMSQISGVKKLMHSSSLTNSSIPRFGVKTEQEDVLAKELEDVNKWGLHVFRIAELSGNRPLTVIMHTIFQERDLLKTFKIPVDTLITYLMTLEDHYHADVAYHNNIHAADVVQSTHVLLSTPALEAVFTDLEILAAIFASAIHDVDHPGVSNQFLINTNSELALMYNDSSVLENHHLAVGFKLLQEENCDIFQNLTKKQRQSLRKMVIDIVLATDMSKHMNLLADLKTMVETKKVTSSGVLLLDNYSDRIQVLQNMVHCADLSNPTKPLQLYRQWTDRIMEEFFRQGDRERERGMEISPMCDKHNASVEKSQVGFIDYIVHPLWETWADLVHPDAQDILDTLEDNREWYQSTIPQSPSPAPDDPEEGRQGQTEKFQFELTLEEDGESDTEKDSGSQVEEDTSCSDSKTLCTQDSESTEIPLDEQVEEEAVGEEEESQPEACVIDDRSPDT
Experimental: (§1) PDE4 tests were performed by Scottish Biomedical Drug Discovery (Scottish, Biomedical Drug Discovery, Glasgow, UK) using human recombinant enzyme obtained from Spodoptera frugiperda (Sf9) cells using a baculovirus expression system (PDE enzyme at 0.5 U/mL in 20 mM Tris.HCl pH 7.4) as previously reported. IMAP technology is based on the high affinity binding of phosphate by immobilized metal coordination complexes on nanoparticles. The binding reagent complexes with phosphate groups on nucleotide monophosphate generated from cyclic nucleotides ([…]) through phosphodiesterases. With fluorescence polarisation detection, binding causes a change in the rate of the molecular motion of the phosphate bearing molecule, and results in an increase in the fluorescence polarization value observed for the fluorescent label attached to the substrate.
(§2) Title compounds 4d and 5d were solved in DMSO at 10^−2 M concentration and then diluted with water to the final suitable concentrations. All our subsequent assays were performed in 3% DMSO (final). All the compounds were tested preliminary at 10 µM concentration, in duplicate.
(§3) In all the experiments, Rolipram as reference compound (at 10 μM for PDE4B2 and 1 μM for PDE4D3) was tested at nine concentrations, in duplicate, to obtain an inhibition curve in order to validate this experiment.
(§4) Being inhibition >50%, 4d and 5d have been further tested in the same assay at five different concentrations (5 × 10^−8–10^−4 M) and IC50 values were determined by nonlinear regression analysis of the inhibition curve, using Hill equation curve fitting (Graph Pad Prism software, version 5.0a).

PDE4B2 = target: T2, PDE4B2 (Homo sapiens, UniProt Q07343); assay: as above; type: biochemical; settings: for inhibition at 10 µM: in duplicate, read-out: inhibition of PDE4B2, preliminary test; for IC50: human recombinant enzyme
T2 construct: host or cells: Spodoptera frugiperda (Sf9), baculovirus
T2 sequence (Q07343 1-564 isoform Q07343-2): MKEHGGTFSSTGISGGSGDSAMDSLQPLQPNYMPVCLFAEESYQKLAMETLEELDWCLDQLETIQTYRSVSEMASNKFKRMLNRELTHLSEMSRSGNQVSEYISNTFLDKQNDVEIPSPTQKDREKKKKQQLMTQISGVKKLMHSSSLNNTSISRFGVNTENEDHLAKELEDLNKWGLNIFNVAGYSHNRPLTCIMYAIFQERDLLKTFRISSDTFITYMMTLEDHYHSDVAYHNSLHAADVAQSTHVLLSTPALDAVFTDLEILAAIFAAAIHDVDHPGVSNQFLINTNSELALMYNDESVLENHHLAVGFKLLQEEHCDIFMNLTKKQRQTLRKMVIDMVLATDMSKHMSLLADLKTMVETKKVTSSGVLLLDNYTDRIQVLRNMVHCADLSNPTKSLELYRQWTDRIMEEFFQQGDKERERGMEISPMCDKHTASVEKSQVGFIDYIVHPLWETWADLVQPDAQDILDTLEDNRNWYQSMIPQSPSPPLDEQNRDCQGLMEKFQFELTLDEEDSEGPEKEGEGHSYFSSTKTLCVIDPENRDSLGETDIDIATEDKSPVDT
Experimental: as §1, §2, §3, §4

PDE1 = assay: Preliminary PDE selectivity evaluation; type: biochemical; settings: 10 µM; data not shown
PDE7 = assay: Preliminary PDE selectivity evaluation; type: biochemical; settings: 10 µM; data not shown
human neutrophils [2] = assay: Neutrophil chemotaxis inhibition (fMLP stimulated); type: cell-based; settings: data not shown
human neutrophils [3] = assay: Flow cytometric evaluation of ROS production in fMLP-activated neutrophils (DCFH-DA); type: cell-based; settings: for inhibition at 10 µM: Homo sapiens, Neutrophil, DCFH-DA method, read-out: ROS production inhibition percentage
Description: Heparinized (heparin 10 U/mL Vister, PfizerItalia, Borgo San Michele, Latina, Italy) venous blood was obtained from healthy male volunteers after written informed consent. Neutrophils were isolated by dextran sedimentation (Dextran 70.000 Plander, Fresenius Kabi Italia, Verona, Italy), and subsequent centrifugation on a Ficoll-Hypaque density gradient (Lympholyte-I from Cedarlane Laboratories Ltd. Hornby, ON, Canada), as described. Contaminating erythrocytes were removed by hypotonic lysis. Neutrophils were washed and resuspended in Hanks’balanced salt solution (HBSS; EuroCLone, Wetherby West, Yorkshire, UK) mixed with Dulbecco’s PBS (EuroClone; HBBS:PBS. Final cell suspensions contained 97% or more neutrophils and more than 98% viable cells, as evaluated by a trypan blue test kit (Sigma Aldrich).
Flow cytometric analysis of neutrophil oxidative metabolism was carried out according to literature method. Briefly, neutrophils, were cultured for 1 h with or without 4d and 5d at different concentration. Thereafter, neutrophils were pre-treated with 2′-7′-dichlorofluorescein-diacetate (DCFH-DA; Sigma, Milan, Italy) ([…]), During the incubation time, DCFH-DA entered into the cells, and it was cleaved by intracellular esterases to give non-fluorescence DCFH trapped within the cells. After washing in PBS, the cells were incubated for 15 min at room temperature in the presence or absence of N-formyl-L-methionin-L-leucyl-L-phenylalanine (fMLP; Sigma, Milan, Italy) ([…]) for 30 min at 37 °C. During this period, intracellular ROS oxidized DCFH to give a green fluorescence […]. The reaction was stopped by keeping the samples on ice before being analyzed by flow cytometry (FC500, Beckman Coulter).

PDE2 = PDE2 (Homo sapiens, UniProt O00408); assay: Preliminary PDE selectivity evaluation; type: biochemical; settings: 10 µM; data not shown
Sequence of PDE2 (O00408 whole entry): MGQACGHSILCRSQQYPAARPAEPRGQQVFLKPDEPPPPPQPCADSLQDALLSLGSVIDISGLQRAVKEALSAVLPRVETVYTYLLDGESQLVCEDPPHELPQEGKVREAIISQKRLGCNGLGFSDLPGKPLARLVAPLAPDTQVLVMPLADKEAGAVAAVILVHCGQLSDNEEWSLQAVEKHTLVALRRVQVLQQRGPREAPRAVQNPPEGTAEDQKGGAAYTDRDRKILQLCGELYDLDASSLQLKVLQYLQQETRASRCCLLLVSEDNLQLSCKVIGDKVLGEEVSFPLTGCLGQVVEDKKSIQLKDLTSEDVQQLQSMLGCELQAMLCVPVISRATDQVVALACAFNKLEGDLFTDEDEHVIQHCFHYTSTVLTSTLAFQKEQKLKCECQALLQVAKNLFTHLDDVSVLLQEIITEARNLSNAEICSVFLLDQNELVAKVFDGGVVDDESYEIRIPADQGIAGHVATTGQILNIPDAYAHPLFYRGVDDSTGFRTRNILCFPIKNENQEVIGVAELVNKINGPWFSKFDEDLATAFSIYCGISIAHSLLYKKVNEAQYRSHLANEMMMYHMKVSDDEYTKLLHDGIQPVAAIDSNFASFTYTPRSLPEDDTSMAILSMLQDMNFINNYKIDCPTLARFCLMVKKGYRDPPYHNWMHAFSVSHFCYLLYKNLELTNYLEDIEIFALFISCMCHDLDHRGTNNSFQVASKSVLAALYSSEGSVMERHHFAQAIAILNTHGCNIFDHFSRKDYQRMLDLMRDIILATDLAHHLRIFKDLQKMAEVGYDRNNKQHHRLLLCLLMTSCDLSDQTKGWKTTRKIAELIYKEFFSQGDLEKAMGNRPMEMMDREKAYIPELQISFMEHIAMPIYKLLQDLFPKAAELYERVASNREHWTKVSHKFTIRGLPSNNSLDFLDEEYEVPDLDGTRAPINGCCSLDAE

PDE3 = assay: Preliminary PDE selectivity evaluation; type: biochemical; settings: 10 µM; data not shown
[4] = Cell vitality by propidium iodide (PI) method in neutrophils; type: cell-based; settings: human, human neutrophils, PI method
Experimental: (§5) In the same test, cell vitality in presence of 4d (10 µM) was assessed by propidium iodide (PI) method at the end of the incubation time. In detail, in the same tubes we added PI staining solution (10 μg/mL, Invitrogen ThermoFisher Scientific, Waltham, MA, USA) to detect dead cells. PI is excited at 488 nm and, emits at a maximum wavelength of 617 nm. Because of these spectral characteristics, PI can be used in combination with other fluorochromes excited at 488 nm such as fluorescein isothiocyanate (FITC). Auto-fluorescence levels of sample were measured and subtracted from each analysis. Data were expressed as mean fluorescence intensity ((MFI), compared with the expression on cells stimulated with control medium alone (defined as 100%)).

human neutrophils [5] = assay: as above; type: cell-based; settings: 10 µM
Experimental: as §5

human platelets [6] = assay: ROS production inhibition in thrombin-stimulated washed platelets (DCFH-DA, flow cytometry); type: cell-based; settings: for IC50: washed human platelets, 0.1 U/mL thrombin, DCFH-DA, mean +/- SD, at least six experiments in duplicate
Experimental: (§6) Freshly drawn venous blood from healthy volunteers of the “Centro Trasfusionale, Ospedale San Martino” in Genoa was collected into 130 mM aqueous trisodium citrate anticoagulant solution (9:1). The donors claimed to have not taken drugs known to interfere with platelet function during two weeks prior to blood collection and gave their informed consent. Washed platelets were prepared centrifuging whole blood at 100× g for 20 min. The obtained platelet-rich plasma was then centrifuged at 1100× g for 15 min. Pellet was washed once with pH 5.2 ACD solution (75 mM trisodium citrate, 42 mM citric acid and 136 mM glucose), centrifuged at 1100× g for 15 min and then re-suspended in pH 7.4 Hepes buffer (145 mM NaCl, 5 mM KCl, 1 mM MgSO4, 10 mM glucose, 10 mM HEPES).
ROS production was quantified as previously reported by DCFH-DA, a ROS-sensitive probe that yields upon oxidation the fluorescent adduct DCF that is trapped inside the cells. Briefly, washed platelets (1.0 × 10^8/mL), pre-incubated with saline, compounds 4 or 5, for 15 min at 37 °C, were stimulated by 0.1 U/mL thrombin. Incubation was stopped by cooling samples in ice bath and then samples were immediately analyzed in a Merck Millipore Bioscience Guava easyCyte flow cytometer (Merk Millipore, Burlington, MA, USA). The reported IC50 value is the molar concentration of the compound able to obtain 50% inhibition of the […] induced by the agonist and is calculated by the percentage of inhibition that is the inhibition of the […] measured in the presence of the agent compared with that measured in a control sample containing saline, carried out under the same conditions.

human platelets [7] = assay: Platelet aggregation inhibition (Born's method, thrombin-stimulated washed platelets); type: cell-based; settings: Platelet, 0.1 U/mL thrombin, mean +/- SD, at least six experiments in duplicate
Experimental: as §6
Platelet aggregation was performed in a Bio-Data Aggregometer (Bio-Data Corporation, Horsham, PA, USA) according to Born’s method and quantified by the light transmission reached within 6 min at 37 °C. Briefly, washed platelets (3.0 × 10^8/mL) were pre-incubated for 3 min at 37 °C with saline, compound 4 or 5 before the addition of 0.1 U/mL thrombin. The IC50 values were calculated as above detailed.

PDE4D3 [8] = settings: Figure 2; cited from earlier work

Row | Structure (SMILES) | inhibition at 10 µM (PDE4D3 [1]) [%] | IC50 (PDE4D3 [1]) [µM] | inhibition at 10 µM (PDE4B2) [%] | IC50 (PDE4B2) [µM] | chemotaxis inhibition (human neutrophils [2]) | inhibition at 10 µM (human neutrophils [3]) [%] | cytotoxic action (PI method) (human neutrophils [5]) | IC50 (human platelets [6]; Homo sapiens, Platelet) [µM] | IC50 (human platelets [7]) [µM] | IC50 (PDE4D3 [8]) [µM] | further results
1 | COc1ccc(/C=N/NC(=O)c2cnn(CC(O)c3ccccc3)c2N)cc1OC1CCCC1 (stereo not drawn) [4d, (E)-5-Amino-N′-(3-(cyclopentyloxy)-4-methoxybenzylidene)-1-(2-hydroxy-2-phenylethyl)-1H-pyrazole-4-carbohydrazide] | > 50 | 1.05 | > 50 | 0.55 | very low or absent | 68 | no cytotoxic action | 40 | 29.8 ± 3.7 |  | inhibition of PDE5 (PDE5): no inhibition; inhibition of PDE1 (PDE1): no inhibition; inhibition of PDE7 (PDE7): no inhibition; inhibition of PDE2 (PDE2): no inhibition; inhibition of PDE3 (PDE3): no inhibition; viability at 10 µM [4]: > 95%; IC50 (human platelets [6]): 38.3 ± 2.8 µM
2 | COc1ccc(/C=N/NC(=O)c2cnn3c2NC(c2ccccc2)C3)cc1OC1CCCC1 (stereo not drawn) [5d, (E)-N′-(3-(cyclopentyloxy)-4-methoxybenzylidene)-2-phenyl-2,3-dihydro-1H-imidazo[1,2-b]pyrazole-7-carbohydrazide] | > 50 | 1.22 | > 50 | 0.55 | very low or absent | 63 | no cytotoxic action | 70.6 ± 7.4 | 71 ± 6.8 |  | 
3 | COc1ccc(/C=N/OCC(O)CN2CC(C)OC(C)C2)cc1OC1CCCC1 (stereo not drawn) [GEBR-4a] |  |  |  |  |  |  |  |  |  | 2.8 | 
4 | COc1ccc(-c2ccn(CC(O)CN3CCOCC3)n2)cc1OC1CCCC1 (stereo not drawn) [GEBR-54] |  |  |  |  |  |  |  |  |  | 7.6 | 
5 | NNC(=O)c1cnn(CC(O)c2ccccc2)c1N (stereo not drawn) [compound 7, 5-Amino-1-(2-hydroxy-2-phenylethyl)-1H-pyrazole-4-carbohydrazide] |  |  |  |  |  |  |  |  |  |  | melting point: 183 to 184 °C; activity towards ROS production in neutrophils (in words) (human neutrophils [3]; data not shown): completely inactive; activity towards ROS production in platelets (in words) (human platelets [6]; human platelets, thrombin stimulated): completely inactive
